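Grown in 96-well plates, cells were treated for 48 hours with each compound at five concentrations. Insufficient inhibition: endpoint recorded as highest concentration tested. GI50 is the concentration that inhibits growth by half.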 Calls of active or inactive are those of the source. Rule as the data show it: active = GI50 up to about 1.1 µM and inactive = higher.
Assays:
Experiment in all cases: inhibition of tumour cell growth, NCI panel, 48 h
Malme-3M = tested on: Malme-3M
NCI-H522 = tested on: NCI-H522
SF-268 = tested on: SF-268
HOP-18 = tested on: HOP-18
HOP-92 = tested on: HOP-92
DMS-114 = tested on: DMS-114
KM12 = tested on: KM12
SNB-19 = tested on: SNB-19
XF498 = tested on: XF498
OVCAR-4 = tested on: OVCAR-4
OVCAR-8 = tested on: OVCAR-8
NCI-H460 = tested on: NCI-H460
SN12C = tested on: SN12C
CCRF-CEM = tested on: CCRF-CEM
SK-MEL-2 = tested on: SK-MEL-2
DMS-273 = tested on: DMS-273
OVCAR-5 = tested on: OVCAR-5
TK-10 = tested on: TK-10
MDA-N = tested on: MDA-N
SR = tested on: SR

| SMILES | GI50 (Malme-3M) | GI50 (NCI-H522) | GI50 (SF-268) | GI50 (HOP-18) | GI50 (HOP-92) | GI50 (DMS-114) | GI50 (KM12) | GI50 (SNB-19) | GI50 (XF498) | GI50 (OVCAR-4) | GI50 (OVCAR-8) | GI50 (NCI-H460) | GI50 (SN12C) | GI50 (CCRF-CEM) | GI50 (SK-MEL-2) | GI50 (DMS-273) | GI50 (OVCAR-5) | GI50 (TK-10) | GI50 (MDA-N) | GI50 (SR) |
| --- | --- | --- | --- | --- | --- | --- | --- | --- | --- | --- | --- | --- | --- | --- | --- | --- | --- | --- | --- | --- |
| COc1cc(/C=C/C(=O)O)ccc1C(=O)O/C=C/c1ccccc1 | > 100 µM (inactive) | > 61.9 µM (inactive) | > 100 µM (inactive) | > 100 µM (inactive) | > 100 µM (inactive) | > 100 µM (inactive) | > 100 µM (inactive) | > 100 µM (inactive) | > 100 µM (inactive) | > 100 µM (inactive) | > 67.5 µM (inactive) | > 100 µM (inactive) | > 100 µM (inactive) | 60.7 µM (inactive) | > 100 µM (inactive) | > 100 µM (inactive) | > 100 µM (inactive) |  |  |  |
| CCOC(=O)N1CCN(C(=O)Nc2cccc3ccccc23)CC1 | > 10 µM (inactive) | > 10 µM (inactive) | > 10 µM (inactive) |  |  |  | > 10 µM (inactive) | > 10 µM (inactive) |  | > 10 µM (inactive) | > 10 µM (inactive) | > 10 µM (inactive) | > 10 µM (inactive) | > 10 µM (inactive) | > 10 µM (inactive) |  | > 10 µM (inactive) | > 10 µM (inactive) | > 10 µM (inactive) | > 10 µM (inactive) |
| CC(C)C(=O)CC(c1ccc(Br)cc1)N1N=C(C(C)C)CC1c1ccc(Br)cc1 (stereo not drawn) | 31.4 µM (inactive) | 65.9 µM (inactive) | > 100 µM (inactive) | > 100 µM (inactive) | 31.4 µM (inactive) | 27.9 µM (inactive) | > 100 µM (inactive) | 50.7 µM (inactive) | 21 µM (inactive) | > 100 µM (inactive) | > 100 µM (inactive) | 51.2 µM (inactive) | > 100 µM (inactive) | 30.5 µM (inactive) | 53.6 µM (inactive) | 38.1 µM (inactive) | > 100 µM (inactive) | > 100 µM (inactive) |  | 69 µM (inactive) |
| C=CCN1C(=O)/C(=C/c2cccs2)N=C1SC1OC(COC(=O)c2ccccc2)C(OC(=O)c2ccccc2)C1OC(=O)c1ccccc1 (stereo not drawn) | > 100 µM (inactive) | 11.4 µM (inactive) |  |  | > 100 µM (inactive) |  | > 100 µM (inactive) |  |  | > 100 µM (inactive) | > 100 µM (inactive) | > 100 µM (inactive) |  | 53.5 µM (inactive) | > 100 µM (inactive) |  | > 100 µM (inactive) | > 100 µM (inactive) |  | > 100 µM (inactive) |
| COc1ccc2c(c1)CCCc1cn[nH]c1-2 | > 100 µM (inactive) | > 100 µM (inactive) | > 100 µM (inactive) | > 100 µM (inactive) | > 100 µM (inactive) | > 100 µM (inactive) | > 100 µM (inactive) | > 100 µM (inactive) | > 100 µM (inactive) | > 100 µM (inactive) | > 100 µM (inactive) | > 100 µM (inactive) | > 100 µM (inactive) | > 72.4 µM (inactive) | > 100 µM (inactive) | > 100 µM (inactive) | > 100 µM (inactive) |  |  |  |
| N#Cc1c(NC(=S)Nc2ccc(Cl)cc2)sc2c1CCCC2 | 41.2 µM (inactive) | 25.8 µM (inactive) | > 100 µM (inactive) |  |  |  | > 100 µM (inactive) | > 100 µM (inactive) |  | 5.16 µM (inactive) | 14.8 µM (inactive) |  | 3.37 µM (inactive) |  | > 100 µM (inactive) |  | > 100 µM (inactive) | > 100 µM (inactive) | > 100 µM (inactive) | 25.1 µM (inactive) |
| CC(=O)OC/C=C\Cn1nc(Br)c(=O)[nH]c1=O | 14.3 µM (inactive) | 2.81 µM (inactive) | 14.9 µM (inactive) |  | 13 µM (inactive) |  | 15.5 µM (inactive) | 18.7 µM (inactive) |  |  | 14.9 µM (inactive) | 13.2 µM (inactive) | 23.2 µM (inactive) | 5.24 µM (inactive) | 13.1 µM (inactive) |  | 17.9 µM (inactive) | 19.1 µM (inactive) | 15.6 µM (inactive) | 4.06 µM (inactive) |
| O=C1C=C(N2CC2)C(=O)C=C1N1CC1 | 0.107 µM (active) | 0.0652 µM (active) | 0.155 µM (active) |  | 0.44 µM (active) |  | 0.824 µM (active) | 0.904 µM (active) | 0.105 µM (active) | 0.216 µM (active) |  | 0.0401 µM (active) | 0.122 µM (active) | 0.0291 µM (active) | 0.12 µM (active) | 0.0617 µM (active) | 0.646 µM (active) | 0.136 µM (active) | 0.515 µM (active) | 0.0258 µM (active) |
| CCOC(=O)C1(C(=O)OCC)CSC1 |  | > 100 µM (inactive) | > 100 µM (inactive) |  | > 100 µM (inactive) |  | > 100 µM (inactive) | > 100 µM (inactive) |  | > 100 µM (inactive) | > 100 µM (inactive) | 0.263 µM (active) | > 100 µM (inactive) | > 100 µM (inactive) |  |  |  | > 100 µM (inactive) | > 100 µM (inactive) | > 100 µM (inactive) |
| OCC(CO)CC1COc2ccccc2O1 (stereo not drawn) | > 10 µM (inactive) | > 10 µM (inactive) | > 10 µM (inactive) |  |  |  | > 10 µM (inactive) | > 10 µM (inactive) |  | > 10 µM (inactive) | > 10 µM (inactive) | > 10 µM (inactive) | > 10 µM (inactive) | > 10 µM (inactive) | > 10 µM (inactive) |  | > 10 µM (inactive) | > 10 µM (inactive) | > 10 µM (inactive) | > 10 µM (inactive) |
